Results taken from patent US4400384A, “5-o-Cyanobenzyl-4,5,6,7-tetrahydrothieno [3,2-c] pyridine methanesulfonate and other novel salts thereof” (Sanofi, S.A., priority 1980, dated 1983).
Structures can show the parent of a compound that is named as a salt.

Key:
[1] = system: blood-platelet aggregation (collagen); assay: Inhibitor action on blood-platelet aggregation, collagen method (ex vivo after gastric tube dosing); assay type: in vivo, female rats of the Wistar type; settings: 100 mg/Kg base equivalent at 48, 24 and 2 h before blood drawing
Experimental: (§1) The inhibitor action on blood-platelet aggregation of the salts of the present invention was determined by two different standard methods known to the art.
(§2) The second method is that described in Ferrand J. C., Lale A.--NUMERATION ET AGREGATION PLAQUETTAIRE A L AIDE DE L AUTOCOUNTER. APPLICATION A L ETUDE DE LA TICLOPIDINE. COMM. SYMPOSIUM TECHNICON INDUSTRIE (PARIS, June 15, 1978); Ferrand J. C., Lale A.--EVALUATION EX-VIVO DE L AGREGATION PLAQUETTAIRE PAR UNE TECHNIQUE AUTOMATIQUE SUR SANG TOTAL COMM. SOCIETE FRANCAISE DE BIOLOGIE CLINIQUE (PARIS Sept. 28, 1979); and J. C. Ferrand, A. Lale, D. Aubert and G. Barthelemy--APPRECIATION QUANTITATIVE DE L' ACTIVITE ANTI-AGREGANTE DE LA TICLOPIDINE PAR VOIE AUTOMATIQUE. COMM. REUNION DE L' ASOCIATION FRANCAISE DE PHARMACOLOGISTES DIJON (May 2-3, 1980), and is referred to hereafter as the collagen method.
(§3) Groups of 10 female rats of the Wistar type were each dosed with one of the base or one of the salts of the invention and with the corresponding maleate salt of Amselem U.S. Pat. No. 4,097,482, at periods of 48 hours, 24 hours and 2 hours prior to drawing blood for testing by the ADP and collagen techniques referred to above. The active medicaments were administered by means of a gastric tube in the form of a 5% aqueous solution of gum arabic. A dosage level of 100 mg/Kg was used for the base, and for the salts an amount was used sufficient to provide the equivalent amount of the base portion of the salt.

[2] = system: blood-platelet aggregation (ADP); assay: Inhibitor action on blood-platelet aggregation, ADP method (ex vivo after gastric tube dosing); assay type: in vivo, female rats of the Wistar type; settings: 100 mg/Kg base equivalent at 48, 24 and 2 h before blood drawing
Experimental: as §1
(§4) The first method, involving the use of ADP (adenosine diphosphate), is that of Ferrand J. C., Gaich C., Dumas, A.--EVALUATION DE L' EFFET ANTI-AGREGANT DE LA TICLOPIDINE PAR UNE TECHNIQUE SUR SANG TOTAL. COMM. SOCIETE DE BIOLOGIE DE TOULOUSE (TOULOUSE Feb. 9, 1978), RESUME IN: REV MED TOULOUSE, 1978, 14, (SUPPL. 5) 680, referred to hereinafter as the ADP method.
as §3

[3] = prior art maleate; cited from earlier work
[4] = system: blood-platelet aggregation; assay: Inhibition of blood-platelet aggregation (general statement); assay type: in vivo; settings: result in words
Experimental: as §1, §4
as §2, with “method. […]” for “method.”

[5] = prior art maleate; cited from earlier work; remark: listed apart in the source

Row | SMILES | BLOOD PLATELET AGGREGATION, COLLAGEN ([1]; controls 2.53, 100 mg/kg) | BLOOD PLATELET AGGREGATION, ADP, 1 mn 30 s ([2]; controls 0.29, 100 mg/kg) | BLOOD PLATELET AGGREGATION, ADP, 3 mn ([2]; controls 0.40, 100 mg/kg) | vasodilator activity (prior art salt) [3] | BLOOD PLATELET AGGREGATION, COLLAGEN ([1]; controls 2.53) | inhibitor action against blood-platelet aggregation [4] | anti-inflammatory activity (prior art salt) [5] | BLOOD PLATELET AGGREGATION, ADP, 1 mn 30 s ([2]; controls 0.29) | BLOOD PLATELET AGGREGATION, ADP, 3 mn ([2]; controls 0.40)
1 | N#Cc1ccccc1CN1CCc2sccc2C1 [Hemifumarate, 5-o-cyanobenzyl-4,5,6,7-tetrahydrothieno [3,2-c] pyridine] | 0.42 | 0.76 | 0.82 |  |  |  |  |  | 
2 | N#Cc1ccccc1CN1CCc2sccc2C1 [Hemitartrate, 5-o-cyanobenzyl-4,5,6,7-tetrahydrothieno [3,2-c] pyridine] | 0.74 | 0.74 | 0.84 |  |  |  |  |  | 
3 | N#Cc1ccccc1CN1CCc2sccc2C1 [Hydrochloride, 5-o-cyanobenzyl-4,5,6,7-tetrahydrothieno [3,2-c] pyridine] | 0.84 | 0.82 | 0.82 |  |  |  |  |  | 
4 | N#Cc1ccccc1CN1CCc2sccc2C1.O=C(O)/C=C\C(=O)O [Maleate, 5-o-cyanobenzyl-4,5,6,7-tetrahydrothieno [3,2-c] pyridine maleate, reference compound] |  |  |  | not free of anti-inflammatory or vasodilator activity | 0.80 | substantial activity in the inhibition of blood-platelet aggregation | not free of anti-inflammatory | 0.70 | 0.81
5 | N#Cc1ccccc1CN1CCc2sccc2C1 [Nitrate, 5-o-cyanobenzyl-4,5,6,7-tetrahydrothieno [3,2-c] pyridine] | 0.91 | 0.84 | 0.83 |  |  |  |  |  | 
